Laboratory results: article PMC7391683, “Two glyoxylate reductase isoforms are functionally redundant but required under high photorespiration conditions in rice” (BMC Plant Biology, 2020)

What was measured:
OsGR2 [1] = biological target: T1, OsGR2 (Oryza sativa, UniProt Q656T5); assay: NADPH oxidation, Lineweaver-Burk; assay type: biochemical; conditions: pH 7.4, 30 °C
T1 construct: gene Os01g0574600; subunit about 37 kDa on SDS-PAGE
T1 sequence (Q656T5 45-341): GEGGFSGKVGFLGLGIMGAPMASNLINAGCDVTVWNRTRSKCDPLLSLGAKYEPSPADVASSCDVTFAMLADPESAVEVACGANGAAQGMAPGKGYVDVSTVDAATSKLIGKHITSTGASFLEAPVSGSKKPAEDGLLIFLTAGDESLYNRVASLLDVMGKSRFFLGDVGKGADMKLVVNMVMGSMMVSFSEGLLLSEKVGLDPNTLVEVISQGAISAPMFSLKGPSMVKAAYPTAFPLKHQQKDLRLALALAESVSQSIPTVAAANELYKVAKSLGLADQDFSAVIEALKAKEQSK
Source text: NADPH oxidation, Lineweaver-Burk on OsGR2

OsGR2 [2] = biological target: T1, OsGR2; assay: NADH oxidation, Lineweaver-Burk; assay type: biochemical; conditions: glyoxylate fixed, pH 7.4, 30 °C
Source text: NADH oxidation, Lineweaver-Burk on OsGR2

OsGR1 = biological target: T2, OsGR1 (Oryza sativa, UniProt Q84VC8); assay: NAD(P)H oxidation; slopes of reciprocal plots against oxalate; assay type: biochemical; conditions: read-out: Ki(oxalate) (mM) / Glyoxylate as substrate NADPH as cofactor
T2 construct: full-length, 6xHis-tag (pCold vector), E. coli Rosetta (DE3), Ni-IDA purified; subunit about 30 kDa on SDS-PAGE
T2 sequence (Q84VC8 1-293): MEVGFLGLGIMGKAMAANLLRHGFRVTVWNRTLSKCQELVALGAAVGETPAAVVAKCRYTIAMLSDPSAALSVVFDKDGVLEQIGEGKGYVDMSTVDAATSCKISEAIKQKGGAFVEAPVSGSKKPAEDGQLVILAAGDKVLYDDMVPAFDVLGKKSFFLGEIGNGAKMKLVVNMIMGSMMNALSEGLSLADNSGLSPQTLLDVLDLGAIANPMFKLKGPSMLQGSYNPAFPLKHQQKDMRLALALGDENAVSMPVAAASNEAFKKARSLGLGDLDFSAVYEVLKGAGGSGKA
Source text: NAD(P)H oxidation; slopes of reciprocal plots against oxalate on OsGR1

[3] = substrate: NC(=O)C1=CN([C@@H]2O[C@H](COP(=O)(O)OP(=O)(O)OC[C@H]3O[C@@H](n4cnc5c(N)ncnc54)[C@H](OP(=O)(O)O)[C@@H]3O)[C@@H](O)[C@H]2O)C=CC1; assay: NADPH oxidation, Lineweaver-Burk; assay type: biochemical, Oryza sativa; conditions: glyoxylate fixed, pH 7.4, 30 °C, varied: cofactor
Source text: (§1) NADPH oxidation, Lineweaver-Burk on OsGR1

[4] = substrate: O=CC(=O)O; assay: NADPH oxidation, Lineweaver-Burk; assay type: biochemical, Oryza sativa; conditions: NADPH fixed, pH 7.4, 30 °C
Source text: as §1

[5] = substrate: NC(=O)C1=CN([C@@H]2O[C@H](COP(=O)(O)OP(=O)(O)OC[C@H]3O[C@@H](n4cnc5c(N)ncnc54)[C@H](O)[C@@H]3O)[C@@H](O)[C@H]2O)C=CC1; assay: NADH oxidation, Lineweaver-Burk; assay type: biochemical, Oryza sativa; conditions: glyoxylate fixed, pH 7.4, 30 °C, varied: cofactor
Source text: NADH oxidation, Lineweaver-Burk on OsGR1

Molecule NC(=O)C1=CN([C@@H]2O[C@H](COP(=O)(O)OP(=O)(O)OC[C@H]3O[C@@H](n4cnc5c(N)ncnc54)[C@H](OP(=O)(O)O)[C@@H]3O)[C@@H](O)[C@H]2O)C=CC1 [NADPH] has a Km (OsGR2 [1]; glyoxylate fixed) of 53 ± 4.6 µM.

For O=CC(=O)O [glyoxylate], the Km (OsGR2 [1]; NADPH fixed) was 72.1 ± 5.3 µM.

NC(=O)C1=CN([C@@H]2O[C@H](COP(=O)(O)OP(=O)(O)OC[C@H]3O[C@@H](n4cnc5c(N)ncnc54)[C@H](O)[C@@H]3O)[C@@H](O)[C@H]2O)C=CC1 [NADH] gave a Km (OsGR2 [2]) of 404 ± 66.5 µM.

Work on O=C(O)C(=O)O [oxalate] yielded a Ki (OsGR1) of 21.2 ± 4.3 mM.

B1: OsGR1 (Oryza sativa Japonica Group) (protein)
chain: T2 sequence (Q84VC8 1-293)
notes: full-length, 6xHis-tag (pCold vector), E. coli Rosetta (DE3), Ni-IDA purified; subunit about 30 kDa on SDS-PAGE
In the case of B1, the Km [3] is reported as 17.6 ± 3.1 µM, the Km [4] is reported as 30.4 ± 3.5 µM and the Km [5] is reported as 420.2 ± 50.5 µM.
